In article PMC9602792, “Preclinical evaluation of the epithelial sodium channel inhibitor AZD5634 and implications on human translation” (American Journal of Physiology - Lung Cellular and …, 2022):

Experiments:
[1] = system: amiloride-sensitive potential difference; parameters: method as in PMID 35227647; conditions: perfused to the nasal surface, people with CF; cited from earlier work
Cftr^−/− rats = assay: μOCT of trachea and lungs excised en bloc from Cftr-knockout rats treated in vivo; parameters: species or system rat; conditions: seven 200-μL doses of 54 µM by oropharyngeal aspiration over 4 days; not significant vs vehicle
Experimental: μOCT imaging and analysis were conducted in vitro and ex vivo as detailed in previous publications ([2], [39]–[41]). Briefly, the μOCT system uses light reflectance to produce video-rate (40 frames/s and 512 lines/frame), high-resolution images (1 micron) captured in real-time and without disruption of sample tissue, permitting simultaneous interrogation of key parameters of airway microanatomy without the addition of exogenous particles or dyes. Following imaging of HBEC cultures and of excised trachea and lungs, images were assessed to obtain quantitative measurements of mucociliary transport (MCT) rate, ASL depth, and ciliary beat frequency (CBF). MCT rates were calculated by analyzing the distance traveled by native particles in the mucus layer over time across multiple frames. Direct geometric measurement of layer thickness (Image J software) yielded ASL depths. CBF was determined by using custom code developed in Matlab (Mathworks, Natick, MA) to quantify the reflectance of beating cilia by Fourier analysis. […] The results for each trachea and lung sample reflected an average of measurements from images obtained from a minimum of six controlled points along the tracheal length, using the cranial end as a reference.
Six-month-old Cftr-knockout rats (female and male) were treated with seven 200-μL doses of either 54 µM AZD5634 or vehicle control, delivered by oropharyngeal aspiration, over 4 days (two doses daily for 3 days and a single dose on the 4th day, 2 h before euthanasia). Rats were euthanized by intraperitoneal injection of pentobarbital sodium (Fatal Plus, 100 mg/kg), and trachea and lungs were excised en bloc and dissected along the dorsal surface from the larynx to the terminal end of the main stem bronchi. […]
(§1) Descriptive statistics were calculated and means compared using unpaired or paired t tests, or ANOVA, with post hoc analyses conducted for multiple comparisons where appropriate. […]

[2] = system: F508del-homozygous HBEC cultures; assay: μOCT imaging of ASL depth, MCT rate and CBF in F508del-homozygous CF HBEC cultures; type: cell-based, human; conditions: AZD5634 1 µM apical
Experimental: Using previously described techniques ([2], [37]), epithelial cells were harvested from excised lung tissue derived from CF donors homozygous for F508del CFTR, expanded, and grown until confluency was attained. The cells were then seeded on 6.5-mm-diameter, 24-well Transwell permeable membrane supports coated with NIH 3T3 fibroblast unconditioned media (0.5 × 10^6 cells/filter; Corning Inc., Corning, NY) and further allowed to mature in differentiating media (PneumaCult ALI, […] Technologies, Cambridge, MA) for a minimum of 4–5 wk until fully differentiated. To stimulate fresh mucus secretion and formation of an even ASL layer, the cells were washed 48–72 h before experimentation with PneumaCult ALI media (80 µL), added apically, and then aspirated following 30–45 min incubation at 37°C. The washing process was repeated with a 15-min incubation period and the mucus layer was allowed to reestablish, after which the cells were treated with 1 µL of AZD5634 (1 µM, apical), alone and in combination with lumacaftor and ivacaftor (luma/iva; 3 µM/10 µM, basolateral). PBS (1% DMSO, apical) served as a vehicle control. […] Only passage 1 and 2 monolayers were used for these studies.
μOCT imaging and analysis were conducted in vitro and ex vivo as detailed in previous publications ([2], [39]–[41]). […] Following imaging of HBEC cultures and of excised trachea and lungs, images were assessed to obtain quantitative measurements of mucociliary transport (MCT) rate, ASL depth, and ciliary beat frequency (CBF). MCT rates were calculated by analyzing the distance traveled by native particles in the mucus layer over time across multiple frames. […] CBF was determined by using custom code developed in Matlab (Mathworks, Natick, MA) to quantify the reflectance of beating cilia by Fourier analysis. […]
as §1

[3] = parameters: method as in unpublished information; conditions: ref unpublished information, cited from earlier work
sheep ENaC = assay: Ussing chamber short-circuit current (Isc) in sheep bronchial epithelial ALI cultures; type: cell-based; conditions: bronchial epithelial cells from healthy sheep, read-out: potency (IC50) on inhibition of ENaC (EC50 in Fig. 1B legend)
Experimental: Normal human bronchial epithelial cell (HBEC) cultures from healthy donors were procured from MatTek Corporation (Ashland, MA), grown at an ALI on Transwell permeable supports (0.4 µm polycarbonate membrane, 12 mm insert, and Costar Corning), and used to test the in vitro potency of AZD5634. Using the same protocol, sheep ALI cultures were prepared from primary bronchial epithelial cells (native sheep tracheas were obtained from Öströö Sheep Farm, Sweden, and internally processed at AstraZeneca R&D, Gothenburg, Sweden) to validate AZD5634 potency at sheep ENaC. Experiments were performed using modified Ussing chambers containing carboxygenated Krebs solution (95% O2-5% CO2) at 37°C. Cell layers were allowed to equilibrate before being voltage-clamped at 0 mV, and then briefly clamped at 10 mV to assess transepithelial electrical resistance.
All data are presented as means ± SE. Values of n refer to the number of cultures used in each group as appropriate. For normally distributed data, paired or unpaired Student’s t tests were used. For data that were not normally distributed, Mann–Whitney U test and Wilcoxon-matched pairs test were used. […] From these curves, pEC50 and Emax values were taken from which mean values were calculated.

In the case of AZD5634, the “effect on amiloride-sensitive nasal potential difference” value [1] is given as “acutely inhibited amiloride-sensitive potential difference”, the ASL depth (Cftr^−/− rats) is given as 15.8 ± 2.1 µm and the MCT rate (Cftr^−/− rats) is given as 0.3 ± 0.1 mm/min. For the same substance, the “ciliary beating (CBF)” value (Cftr^−/− rats) was 7.9 ± 0.7 Hz, the ASL depth ([2]; 6 h, luma/iva 3 µM/10 µM basolateral, absolute values) was 24.8 ± 3.6 µm and the CBF ([2]; absolute value) was 8.6 ± 0.5 Hz. The MCT rate ([2]; luma/iva 3 µM/10 µM basolateral, absolute values) was 2.5 ± 0.5 mm/min, the hyperkalemia ([3]; after inhalation and/or nebulization) was “does not cause hyperkalemia” and the renal clearance [3] was “minimal”. For the same substance, the IC50 (sheep ENaC) was 5.5 nM.
